Earlier results on 1 substance are cited in publication PMC2692938 (Nuclear medicine and biology, 2009).

In the data set the test system is αvβ3. To be noted: selective αvβ3 antagonist.

Consider c(RGDfV), for which the IC50 values entry is reported as “lower nanomolar range”.
